Reference: patent US7691874B2, “Neuroprotective properties of dextrorotatory morphinans” (priority 2004, dated 2010)
Marks after values point to notes of the source that are not given here.

Experiments:
[1] = test system: MA-treated mice; test: Hypokinesia induced by MA; format: in vivo; details: 12 and 24 mg/kg; 3 days after final MA
[2] = test system: MA-treated mice; test: Nigral TH-IR in MA-treated mice; details: 24 mg/kg i.p.
[3] = test system: MA-treated mice; test: MA-induced FRA-IR in the striatum; details: morphinan 20 mg/kg i.p.; MA 1 mg/kg i.p./day x 7
Protocol: Therefore, brains were removed and used for immunocytochemical analysis at 18 h after the final cocaine/MA treatment. The coronal sections containing striatum were processed for FRA immunocytochemistry. […] The FRA antibody was used at 1:2,000 as the optimal dilution. The FRA-IR in the striatum was calculated using image analysis systems with a polaroid digital microscopic camera (Optimas version 6.2).

[4] = test system: MA-treated mice; test: Striatal dopamine and metabolites in MA-treated mice; format: in vivo; details: for Concentration DA in the striatum: 3 days after final MA
Source text: Mice were sacrificed at 3 days after final MA injection.

[5] = test system: C57 BL/6 mice; test: Locomotor activity and locomotor pattern following repeated administration of morphinans or PCP; format: in vivo; details: for locomotor pattern (tracings): 40 mg/kg i.p. (PCP 5 mg/kg), FIG. 3; for marginal activity (circling behaviour; absolute turn angular): 20 or 40 mg/kg i.p./day x 7 (PCP 2.5 or 5 mg/kg), 3-min period; for marginal activity (circling behaviour; absolute turn angular) / locomotor activity (total distance moved): vs saline; for locomotor activity (total distance moved): 20 or 40 mg/kg i.p./day x 7 days, 30 min after final treatment
[6] = test system: MA-treated mice; test: Methamphetamine (MA)-induced hyperthermia; format: in vivo; details: 24 mg/kg; MA 7.5 mg/kg i.p. x 4 at 2-h intervals
Protocol: Rectal temperature was recorded at 40 min after each MA treatment. […] Mice were sacrificed at 3 days after final MA injection.
FIGS. 10A-10B show effect of morphinans on the methamphetamine (MA)-induced hyperthermia. Mice received i.p. injections of MA (four injections of 7.5 mg/kg each) at 2-h intervals under the ambient temperature of 22.0±0.5° C. Temperatures were recorded at 40 min after each MA treatment (Arrow=MA injection).

[7] = test system: kainate or maximal electric shock; details: kainate (24) or maximal electric shock (27); cited from earlier work
[8] = test system: MPTP-treated mice; test: Striatal dopamine and metabolites (HPLC-EC) in MPTP-treated mice; details: for Concentration DA in the striatum: mean ± S.E.M., 8 animals
Protocol: Each morphinan was administered 30 min prior to every injection of MPTP for last three days (from day 4th to day 7th). Animals were sacrificed 24 h after the last MPTP treatment.
Brains were rapidly removed and cut into 1 mm coronal sections on ice. The striatum was punched using a fine pasteur pipette (3, 21, 22), and stored at −70° C. DA and its metabolites, 3,4-dihydroxyphenylacetic acid (DOPAC) and homovanilic acid (HVA) were measured by HPLC-eletrochemical detection (3, 21, 22). Briefly, the striatum was homogenized in 0.2 M perchloric acid containing 3,4-dihydroxybenzylamine as an internal standard (10 mg wet weight of tissue per ml). The homogenate was centrifuged and a 20-μl aliquot of the supernatant was injected into the HPLC equipped with an ODS-C18 column. The mobile phase was comprised of 26 ml of acetonitrile, 21 ml of tetrahydrofuran and 960 ml of 0.15 M monochloroacetic acid (pH 3.0) containing 50 mg/l of EDTA and 200 mg/l of sodium octyl sulfate. The amount of DA, DOPAC and HVA were determined by comparison of peak height ratio of tissue sample with standards, and were expressed in nanograms per 100 mg of wet weight of tissue.
Each morphinan was administered 30 min before every injection of MPTP for last three days. Animals were sacrificed at 24 h after the last MPTP injection.

[9] = test system: cocaine-treated mice; test: Cocaine-induced Fos-related antigen-immunoreactivity (FRA-IR) in the striatum; details: cocaine 5 mg/kg; morphinan 20 mg/kg i.p.
[10] = test system: C57 BL/6 mice; test: Conditioned place preference (psychological dependence) following repeated administration of morphinans or PCP; format: in vivo; details: 20 or 40 mg/kg i.p. (PCP 2.5 or 5 mg/kg); vs saline
Protocol: On day 14, the guillotine doors were raised. […] Data were analyzed between 0900 and 1700 hr.

[11] = test system: MA-treated mice; test: MA-induced behavioural sensitization; details: morphinan 20 mg/kg i.p., last 3 days of wash-out (Ex. 3.12)
Protocol: Morphinans (20 mg/kg, i.p.) were administered last 3 days of wash-out period.

[12] = test system: MA-treated mice; test: MA-induced hyperlocomotion; format: in vivo; details: morphinan 20 mg/kg i.p. 30 min before MA 1 mg/kg i.p./day x 7
Protocol: FIGS. 39A-39D show effect of morphinans on the MA-induced hyperactivity in the mice. Each morphinan (20 mg/kg, i.p.) was administered 30 minutes prior to MA (1 mg/kg, i.p.). All treatments were performed for 7 days.

[13] = test system: MPTP-treated mice; test: Hypokinesia (reduction in locomotor activity) induced by MPTP; format: in vivo; details: 12 or 24 mg/kg i.p. 30 min before MPTP (20 mg/kg/day x 7), last three days
[14] = test system: LPS-treated mice; test: Hypokinesia induced by intrastriatal LPS; details: 12 or 24 mg/kg, twice before bilateral intrastriatal LPS
[15] = test system: NMDA receptor associated PCP sites; details: cited from earlier work
[16] = test system: cocaine-treated mice; test: Cocaine-induced hyperlocomotion; format: in vivo; details: for effect on locomotor activity induced by low dose of cocaine: cocaine 5 mg/kg i.p. x 7 days, morphinan 15 or 30 mg/kg (DF 20 mg/kg) i.p.; for effect on hyperactivity induced by high dose of cocaine: cocaine 20 mg/kg i.p. x 7 days, morphinan 15 or 30 mg/kg i.p. 30 min before
Protocol: FIGS. 34A-34B show effect of morphinans on the cocaine-induced hyperactivity in the mice. Morphinans (15 and 30 mg/kg, i.p.) were administered 30 minutes prior to cocaine (5 and 20 mg/kg, i.p.). Central activity means relatively non-specific locomotor activity in the center of the box. Marginal activity means circling behaviors. All treatments were performed for 7 days.
FIGS. 35A-35D show effect of dimemorfan (DF) on cocaine-induced hyperactivity in the mice. DF (20 mg/kg, i.p.) was administered 30 minutes prior to cocaine (5 and 20 mg/kg, i.p.). All treatments were performed for 7 days.

[17] = target: σ1 receptors (Homo sapiens, UniProt Q99720); details: cited from earlier work
[18] = test system: LPS-treated mice; test: Striatal dopamine and metabolites in LPS-treated mice; format: in vivo; details: for Concentration DA in the striatum: 3 weeks after LPS
Source text: Control animals received striatal injection with PBS.
Mice were sacrificed at 3 weeks after LPS treatment.

[19] = target: CB1 receptor (Rattus norvegicus, UniProt P20272); format: biochemical
CB1 receptor, sequence (P20272 whole entry): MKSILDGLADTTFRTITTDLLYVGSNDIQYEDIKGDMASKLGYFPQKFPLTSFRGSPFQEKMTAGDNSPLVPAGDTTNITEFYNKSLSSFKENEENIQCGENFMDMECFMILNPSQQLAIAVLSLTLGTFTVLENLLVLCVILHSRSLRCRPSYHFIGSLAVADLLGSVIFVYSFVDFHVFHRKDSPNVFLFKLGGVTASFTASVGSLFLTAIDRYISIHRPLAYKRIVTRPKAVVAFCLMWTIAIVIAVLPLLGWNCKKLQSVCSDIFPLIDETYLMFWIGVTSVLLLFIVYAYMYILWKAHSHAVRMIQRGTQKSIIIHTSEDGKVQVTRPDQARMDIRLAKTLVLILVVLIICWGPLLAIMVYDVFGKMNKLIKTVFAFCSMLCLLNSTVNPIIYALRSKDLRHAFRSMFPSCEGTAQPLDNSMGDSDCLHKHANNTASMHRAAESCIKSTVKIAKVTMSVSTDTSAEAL

σ1 receptors, sequence (Q99720 whole entry): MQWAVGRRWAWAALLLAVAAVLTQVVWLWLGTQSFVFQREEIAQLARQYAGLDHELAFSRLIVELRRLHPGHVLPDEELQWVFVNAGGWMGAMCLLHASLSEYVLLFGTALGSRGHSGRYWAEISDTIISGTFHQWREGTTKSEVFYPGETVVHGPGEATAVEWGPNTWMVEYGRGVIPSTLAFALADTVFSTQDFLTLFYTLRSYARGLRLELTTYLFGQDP

C=CCOc1ccc2c(c1)[C@@]13CCCC[C@H]1[C@@H](C2)N(C)CC3 [AM, 3-allyloxy-17-methylmorphinan]
effect on MA-induced reduction in locomotor activity [1]: significantly prevented MA-induced reduction in locomotor activity | effect on MA-induced decrease in nigral TH-positive cells [2]: significantly attenuated the decrease in TH-positive cells | effect on MA-induced FRA-IR in the striatum [3]: apparently attenuated | effect on MA-induced reductions in striatal DA, DOPAC and HVA ([4]; 24 mg/kg pretreatment): significantly protected | Concentration DOPAC in the striatum ([4]; morphinan 12 (mg/kg) + MA): 89 ± 9 ng/100 mg wet tissue | Concentration HVA in the striatum ([4]; morphinan 12 (mg/kg) + MA): 79 ± 9 ng/100 mg wet tissue | Concentration DA in the striatum ([4]; morphinan 12 (mg/kg) + MA, mean ± S.E.M., 8 animals): 601 ± 62 ng/100 mg wet tissue | Concentration DOPAC in the striatum ([4]; morphinan 24 (mg/kg) + MA): 96 ± 10^b ng/100 mg wet tissue | Concentration HVA in the striatum ([4]; morphinan 24 (mg/kg) + MA): 92 ± 10^b ng/100 mg wet tissue | Concentration DA in the striatum ([4]; morphinan 24 (mg/kg) + MA): 749 ± 64^b ng/100 mg wet tissue | locomotor pattern (tracings) [5]: did not produce significant marginal activity | marginal activity (circling behaviour; absolute turn angular) [5]: did not significantly affect marginal activity | locomotor activity (total distance moved) [5]: appeared to increase locomotor activity slightly | effect on MA-induced hyperthermia (rectal temperature) [6]: attenuated by all morphinans used in this study | anticonvulsant effect [7]: exhibited anticonvulsant effects | effect on MPTP-induced reductions in striatal DA, DOPAC and HVA ([8]; 24 mg/kg pretreatment): did not alter reductions in DA, DOPAC and HVA | Concentration DOPAC in the striatum ([8]; morphinan 12 (mg/kg) + MPTP): 54 ± 6 ng/100 mg wet tissue | Concentration HVA in the striatum ([8]; morphinan 12 (mg/kg) + MPTP): 69 ± 5 ng/100 mg wet tissue | Concentration DA in the striatum ([8]; morphinan 12 (mg/kg) + MPTP): 468 ± 52 ng/100 mg wet tissue | Concentration DOPAC in the striatum ([8]; morphinan 24 (mg/kg) + MPTP): 66 ± 8 ng/100 mg wet tissue | Concentration HVA in the striatum ([8]; morphinan 24 (mg/kg) + MPTP): 78 ± 7 ng/100 mg wet tissue | Concentration DA in the striatum ([8]; morphinan 24 (mg/kg) + MPTP): 539 ± 64 ng/100 mg wet tissue | effect on cocaine-induced FRA-IR in the striatum [9]: apparently attenuated | conditioned place preference (CPP) [10]: almost no CPP effects | effect on MA-induced behavioural sensitization [11]: significantly reduced | effect on MA-induced hyperlocomotion [12]: consistently effective in attenuating hyperlocomotion induced by MA | effect on MPTP-induced reduction in locomotor activity [13]: neither AM nor DF affected significantly the locomotor hypoactivity | effect on LPS-induced decrease in locomotor activity [14]: neither AM nor DF were effective in attenuating locomotor hypoactivity | affinity for NMDA receptor associated PCP sites [15]: very low affinities | effect on locomotor activity induced by low dose of cocaine [16]: consistently attenuated locomotor activity induced by a low dose of cocaine | effect on hyperactivity induced by high dose of cocaine [16]: not uniform | affinity for σ1 receptors [17]: high affinity ligands | effect on LPS-induced reductions in striatal DA, DOPAC and HVA ([18]; 24 mg/kg pretreatment): did not alter LPS-induced reductions in DA, DOPAC and HVA levels | Concentration DOPAC in the striatum ([18]; morphinan 12 (mg/kg) + LPS): 64 ± 8 ng/100 mg wet tissue | Concentration HVA in the striatum ([18]; morphinan 12 (mg/kg) + LPS): 75 ± 6 ng/100 mg wet tissue | Concentration DA in the striatum ([18]; morphinan 12 (mg/kg) + LPS, mean ± S.E.M., 8 animals): 454 ± 55 ng/100 mg wet tissue | Concentration DOPAC in the striatum ([18]; morphinan 24 (mg/kg) + LPS): 66 ± 7 ng/100 mg wet tissue | Concentration HVA in the striatum ([18]; morphinan 24 (mg/kg) + LPS): 70 ± 8 ng/100 mg wet tissue | Concentration DA in the striatum ([18]; morphinan 24 (mg/kg) + LPS): 452 ± 49 ng/100 mg wet tissue

CCCCCCC(C)(C)c1ccc([C@@H]2C[C@H](O)CC[C@H]2CCCO)c(O)c1 [CP55,940, [1α, 2β-(R)-5α]-(−)-5-(1,1-dimethyl)-2-[5-hydroxy-2-(3-hydroxypropyl)cyclohexyl-phenol], reference compound]
stimulation of GTP γS binding [19]: about 120%

CN1CC[C@]23CCCC[C@H]2[C@H]1Cc1ccc(O)cc13 [DX, 3-hydroxy-17-methylmorphinan, reference compound]
locomotor pattern (tracings) [5]: produced marginal activity | marginal activity (circling behaviour; absolute turn angular) [5]: significant increase in marginal activity | locomotor activity (total distance moved) [5]: significantly increased locomotor activity | conditioned place preference (CPP) [10]: produced CPP in a dose-dependent manner | affinity for σ1 receptors [17]: high affinity ligands

COc1ccc2c(c1)[C@@]13CCCC[C@H]1[C@@H](C2)NCC3 [MM, 3-methoxymorphinan, reference compound]
effect on cocaine-induced FRA-IR in the striatum [9]: Neither DM nor MM affects this induction of FRA-IR | effect on locomotor activity induced by low dose of cocaine [16]: did not influence locomotor activity mediated by a low dose of cocaine | effect on hyperactivity induced by high dose of cocaine [16]: attenuated

c1ccc(C2(N3CCCCC3)CCCCC2)cc1 [PCP, phencyclidine, reference compound]
locomotor pattern (tracings) [5]: produced marginal activity | marginal activity (circling behaviour; absolute turn angular) [5]: much stronger stereotypies | conditioned place preference (CPP) [10]: most significant CPP
